# In ChEMBL document CHEMBL2163239, “Inhibitors of human immunodeficiency virus type 1 (HIV-1) attachment 6. Preclinical and human pharmacokinetic profiling of BMS-663749, a phosphonooxymethyl prodrug of the HIV-1 attachment inhibitor 2-(4-benzoyl-1-piperazinyl)-1-(4,7-dimethoxy-1H-pyrrolo[2,3-c]pyridin-3-yl)-2-oxoethanone …” (J Med Chem, 2012):
# Tests used:
# [1] = Aqueous solubility of compound at pH 5.4; assay type: physicochemical
# [2] = Tmax in healthy human at 400 mg, po administered with high fat meal; assay type: ADME, organism-based; conditions: in vivo
# [3] = Cmax in healthy human at 200 mg, po administered with high fat meal; assay type: ADME, organism-based; set-up: dose 200 mg, route oral; conditions: in vivo
# [4] = Volume of distribution at steady state in beagle dog at 1.2 mg/kg, iv; assay type: ADME, organism-based, Canis lupus familiaris; set-up: dose 1.2 mg/kg, route intravenous; conditions: in vivo, read-out: Vdss
# Cynomolgus monkey [5] = experiment: Cmax in cynomolgus monkey assessed as BMS-488043 level at 7.1 mg/kg, po; assay type: ADME, organism-based, Macaca fascicularis; set-up: dose 7.1 mg/kg, route oral; conditions: in vivo
# [6] = Tmax in healthy human at 200 mg, po administered with high fat meal; assay type: ADME, organism-based; conditions: in vivo
# [7] = Half life in healthy human at 200 mg, po administered with high fat meal; assay type: ADME, organism-based; conditions: in vivo
# [8] = AUC (infinity) in healthy human at 800 mg, po administered with high fat meal; assay type: ADME, organism-based; set-up: dose 800 mg, time infinity, route oral; conditions: plasma
# [9] = Cmax in healthy human at 800 mg, po administered with high fat meal; assay type: ADME, organism-based; set-up: dose 800 mg, route oral; conditions: in vivo
# [10] = Clearance in cynomolgus monkey at 1.3 mg/kg, iv; assay type: ADME, organism-based, Macaca fascicularis; set-up: dose 1.3 mg/kg, route intravenous; conditions: in vivo
# [11] = AUC (infinity) in healthy human at 100 mg, po administered with high fat meal; assay type: ADME, organism-based; set-up: dose 100 mg, route oral, time infinity; conditions: plasma
# Rattus norvegicus [12] = experiment: Half life in Sprague-Dawley rat assessed as BMS-488043 level at 7.9 mg/kg, po; assay type: ADME, organism-based; set-up: dose 7.9 mg/kg, route oral; conditions: in vivo
# Canis familiaris [13] = experiment: AUC (total) in beagle dog assessed as BMS-488043 level at 6.6 mg/kg, po; assay type: ADME, organism-based, Canis lupus familiaris, Plasma; set-up: dose 6.6 mg/kg, route oral; conditions: in vivo
# [14] = Half life in healthy human at 25 mg, po administered with high fat meal; assay type: ADME, organism-based; conditions: in vivo
# [15] = Half life in cynomolgus monkey at 1.3 mg/kg, iv; assay type: ADME, organism-based, Macaca fascicularis; set-up: dose 1.3 mg/kg, route intravenous; conditions: in vivo
# [16] = Plasma concentration in healthy human at 200 mg, po administered with high fat meal measured after 12 hrs; assay type: ADME, organism-based
# Canis familiaris [17] = experiment: Cmax in beagle dog assessed as BMS-488043 level at 6.6 mg/kg, po; assay type: ADME, organism-based, Canis lupus familiaris; set-up: dose 6.6 mg/kg, route oral; conditions: in vivo
# [18] = Volume of distribution at steady state in cynomolgus monkey at 1.3 mg/kg, iv; assay type: ADME, organism-based, Macaca fascicularis; set-up: dose 1.3 mg/kg, route intravenous; conditions: in vivo, read-out: Vdss
# Rattus norvegicus [19] = experiment: Absolute oral bioavailability in Sprague-Dawley rat assessed as BMS-488043 level at 7.9 mg/kg; assay type: ADME, organism-based; conditions: in vivo
# [20] = Cmax in healthy human at 50 mg, po administered with high fat meal; assay type: ADME, organism-based; set-up: dose 50 mg, route oral; conditions: in vivo
# [21] = AUC (infinity) in healthy human at 25 mg, po administered with high fat meal; assay type: ADME, organism-based; set-up: dose 25 mg, time infinity, route oral; conditions: plasma
# Rattus norvegicus [22] = experiment: Tmax in Sprague-Dawley rat assessed as BMS-488043 level at 7.9 mg/kg, po; assay type: ADME, organism-based; set-up: dose 7.9 mg/kg, route oral; conditions: in vivo
# Canis familiaris [23] = experiment: Tmax in beagle dog assessed as BMS-488043 level at 6.6 mg/kg, po; assay type: ADME, organism-based, Canis lupus familiaris; set-up: dose 6.6 mg/kg, route oral; conditions: in vivo
# [24] = Volume of distribution at steady state in Sprague-Dawley rat at 1.4 mg/kg, iv; assay type: ADME, organism-based; set-up: dose 1.4 mg/kg, route intravenous; conditions: in vivo, read-out: Vdss
# Cynomolgus monkey [25] = experiment: Absolute oral bioavailability in cynomolgus monkey assessed as BMS-488043 level at 7.1 mg/kg; assay type: ADME, organism-based, Macaca fascicularis; conditions: in vivo
# [26] = Aqueous solubility of compound at pH 1.4 after 18 to 24 hrs by RP-HPLC analysis; assay type: physicochemical
# [27] = Mean residence time in beagle dog at 1.2 mg/kg, iv; assay type: ADME, organism-based, Canis lupus familiaris; set-up: dose 1.2 mg/kg, route intravenous; conditions: in vivo
# Plasma [28] = experiment: Plasma concentration in healthy human at 25 mg, po administered with high fat meal measured after 12 hrs; assay type: ADME, organism-based; conditions: in vivo, BLD = below limit of detection
# [29] = Tmax in healthy human at 100 mg, po administered with high fat meal; assay type: ADME, organism-based; conditions: in vivo
# [30] = Plasma concentration in healthy human at 400 mg, po administered with high fat meal measured after 12 hrs; assay type: ADME, organism-based
# [31] = AUC (infinity) in healthy human at 200 mg, po administered with high fat meal; assay type: ADME, organism-based; set-up: dose 200 mg, route oral, time infinity; conditions: plasma
# Canis familiaris [32] = experiment: Absolute oral bioavailability in beagle dog assessed as BMS-488043 level at 6.6 mg/kg; assay type: ADME, organism-based, Canis lupus familiaris; conditions: in vivo
# [33] = Cmax in healthy human at 25 mg, po administered with high fat meal; assay type: ADME, organism-based; set-up: dose 25 mg, route oral; conditions: in vivo
# Canis familiaris [34] = experiment: Half life in beagle dog assessed as BMS-488043 level at 6.6 mg/kg, po; assay type: ADME, organism-based, Canis lupus familiaris; set-up: dose 6.6 mg/kg, route oral; conditions: in vivo
# Cynomolgus monkey [35] = experiment: Half life in cynomolgus monkey assessed as BMS-488043 level at 7.1 mg/kg, po; assay type: ADME, organism-based, Macaca fascicularis; set-up: dose 7.1 mg/kg, route oral; conditions: in vivo
# [36] = Half life in healthy human at 50 mg, po administered with high fat meal; assay type: ADME, organism-based; conditions: in vivo
# Cynomolgus monkey [37] = experiment: AUC (total) in cynomolgus monkey assessed as BMS-488043 level at 7.1 mg/kg, po; assay type: ADME, organism-based, Macaca fascicularis, Plasma; set-up: dose 7.1 mg/kg, route oral; conditions: in vivo
# [38] = Plasma concentration in healthy human at 800 mg, po administered with high fat meal measured after 12 hrs; assay type: ADME, organism-based
# [39] = Plasma concentration in healthy human at 100 mg, po administered with high fat meal measured after 12 hrs; assay type: ADME, organism-based
# Rattus norvegicus [40] = experiment: AUC (total) in Sprague-Dawley rat assessed as BMS-488043 level at 7.9 mg/kg, po; assay type: ADME, organism-based, Plasma; set-up: dose 7.9 mg/kg, route oral; conditions: in vivo
# Plasma [41] = experiment: Plasma concentration in healthy human at 50 mg, po administered with high fat meal measured after 12 hrs; assay type: ADME, organism-based; conditions: in vivo, BLD = below limit of detection
# [42] = Lipophilicity, log D of compound in octanol-PBS mixture at pH 6.5 by HPLC-UV analysis; assay type: physicochemical
# [43] = Half life in Sprague-Dawley rat at 1.4 mg/kg, iv; assay type: ADME, organism-based; set-up: dose 1.4 mg/kg, route intravenous; conditions: in vivo
# [44] = Cmax in healthy human at 100 mg, po administered with high fat meal; assay type: ADME, organism-based; set-up: dose 100 mg, route oral; conditions: in vivo
# [45] = Half life in healthy human at 100 mg, po administered with high fat meal; assay type: ADME, organism-based; conditions: in vivo
# Cynomolgus monkey [46] = experiment: Tmax in cynomolgus monkey assessed as BMS-488043 level at 7.1 mg/kg, po; assay type: ADME, organism-based, Macaca fascicularis; set-up: dose 7.1 mg/kg, route oral; conditions: in vivo
# [47] = Half life in healthy human at 800 mg, po administered with high fat meal; assay type: ADME, organism-based; conditions: in vivo
# [48] = AUC (infinity) in healthy human at 50 mg, po administered with high fat meal; assay type: ADME, organism-based; set-up: dose 50 mg, time infinity, route oral; conditions: plasma
# [49] = Mean residence time in cynomolgus monkey at 1.3 mg/kg, iv; assay type: ADME, organism-based, Macaca fascicularis; set-up: dose 1.3 mg/kg, route intravenous; conditions: in vivo
# [50] = Clearance in beagle dog at 1.2 mg/kg, iv; assay type: ADME, organism-based, Canis lupus familiaris; set-up: dose 1.2 mg/kg, route intravenous; conditions: in vivo
# Rattus norvegicus [51] = experiment: Cmax in Sprague-Dawley rat assessed as BMS-488043 level at 7.9 mg/kg, po; assay type: ADME, organism-based; set-up: dose 7.9 mg/kg, route oral; conditions: in vivo
# [52] = Tmax in healthy human at 50 mg, po administered with high fat meal; assay type: ADME, organism-based; conditions: in vivo
# [53] = Half life in beagle dog at 1.2 mg/kg, iv; assay type: ADME, organism-based, Canis lupus familiaris; set-up: dose 1.2 mg/kg, route intravenous; conditions: in vivo
# [54] = Tmax in healthy human at 800 mg, po administered with high fat meal; assay type: ADME, organism-based; conditions: in vivo
# [55] = Half life in healthy human at 400 mg, po administered with high fat meal; assay type: ADME, organism-based; conditions: in vivo
# [56] = AUC (infinity) in healthy human at 400 mg, po administered with high fat meal; assay type: ADME, organism-based; set-up: dose 400 mg, time infinity, route oral; conditions: plasma
# [57] = Dissociation constant, pKa of compound; assay type: physicochemical
# [58] = Aqueous solubility of compound at pH 8.9; assay type: physicochemical
# [59] = Tmax in healthy human at 25 mg, po administered with high fat meal; assay type: ADME, organism-based; conditions: in vivo
# [60] = Clearance in Sprague-Dawley rat at 1.4 mg/kg, iv; assay type: ADME, organism-based; set-up: dose 1.4 mg/kg, route intravenous; conditions: in vivo
# [61] = Mean residence time in Sprague-Dawley rat at 1.4 mg/kg, iv; assay type: ADME, organism-based; set-up: dose 1.4 mg/kg, route intravenous; conditions: in vivo
# [62] = Cmax in healthy human at 400 mg, po administered with high fat meal; assay type: ADME, organism-based; set-up: dose 400 mg, route oral; conditions: in vivo
structure (smiles),measurement,setting,value
COc1cnc(OC)c2c1c(C(=O)C(=O)N1CCN(C(=O)c3ccccc3)CC1)cn2COP(=O)(O)O.NCCCC[C@H](N)C(=O)O,solubility,[1],> 12000 µg/mL
same,Tmax,[2],37.8 min
same,Cmax,[3],8420 ng/mL
same,Vd,[4],0.3 L/kg
same,Cmax,Cynomolgus monkey [5],16.4 µM
same,Tmax,[6],30 min
same,half-life,[7],402 min
same,AUC(0-inf),[8],64100 ng·h/mL
same,Cmax,[9],26800 ng/mL
same,clearance,[10],4.4 mL/min/kg
same,AUC(0-inf),[11],5730 ng·h/mL
same,t1/2,Rattus norvegicus [12],90 min
same,AUC,Canis familiaris [13],82.844 µM·h
same,half-life,[14],60 min
same,half-life,[15],60 min
same,concentration at 12 h,[16],33 ng/mL
same,Cmax,Canis familiaris [17],14 µM
same,Vd,[18],0.048 L/kg
same,F,Rattus norvegicus [19],62%
same,Cmax,[20],1370 ng/mL
same,AUC(0-inf),[21],1160 ng·h/mL
same,Tmax,Rattus norvegicus [22],49.8 min
same,Tmax,Canis familiaris [23],15 min
same,Vd,[24],0.12 L/kg
same,F,Cynomolgus monkey [25],67%
same,solubility,[26],220 µg/mL
same,MRT,[27],4.2 min
same,Cp,Plasma [28],BLD
same,Tmax,[29],30 min
same,concentration at 12 h,[30],59 ng/mL
same,AUC(0-inf),[31],14200 ng·h/mL
same,F,Canis familiaris [32],93%
same,Cmax,[33],784 ng/mL
same,t1/2,Canis familiaris [34],246 min
same,t1/2,Cynomolgus monkey [35],288 min
same,half-life,[36],84 min
same,AUC,Cynomolgus monkey [37],34.183 µM·h
same,concentration at 12 h,[38],150 ng/mL
same,concentration at 12 h,[39],12 ng/mL
same,AUC,Rattus norvegicus [40],13.168 µM·h
same,Cp,Plasma [41],BLD
same,logD,[42],< -1
same,half-life,[43],9.6 min
same,Cmax,[44],3650 ng/mL
same,half-life,[45],114 min
same,Tmax,Cynomolgus monkey [46],49.8 min
same,half-life,[47],660 min
same,AUC(0-inf),[48],2150 ng·h/mL
same,MRT,[49],10.8 min
same,clearance,[50],70 mL/min/kg
same,Cmax,Rattus norvegicus [51],3.94 µM
same,Tmax,[52],30 min
same,half-life,[53],9 min
same,Tmax,[54],60 min
same,half-life,[55],780 min
same,AUC(0-inf),[56],26200 ng·h/mL
same,pKa,[57],2.2
same,solubility,[58],> 12000 µg/mL
same,Tmax,[59],30 min
same,clearance,[60],14 mL/min/kg
same,MRT,[61],8.4 min
same,Cmax,[62],12900 ng/mL
